# Measurements published in patent US9751919B2, “Antimicrobial compositions comprising a hyaluronic acid binding peptide and a β-lactam antibiotic” (priority 2012, dated 2017).
# “And” between values parts separate entries of the source, which are not always exact repeats. Equal values may be shown once. “Also recorded” adds a separate entry of the source. Marks after values point to notes of the source that are not given here.
# Tests used:
# HA-MRSA [1] = assay: MIC (CLSI broth dilution), agent alone; format: cell-based, Staphylococcus aureus; conditions: agent alone
# Experimental: (§1) VISA (strains 92, 95 and 96), VRSA (strains 105 and 106) and E. coli (strain 69717) isolates were also tested. One MSSA was used as a control. All MICs were assessed using CLSI guidelines. Also assessed was the activity of cefazolin, ceftriazone, meropenem, and a piperacillin/tazobactam combination antibiotic. Minimum inhibitory concentration (MIC) is the lowest concentration of an antimicrobial that will inhibit the visible growth of a microorganism after incubation.
# (§2) Antimicrobial Susceptibility Testing: A custom designed panel of antimicrobials was created. […] These agents were obtained as laboratory grade powders from their respective manufacturers. Stock solutions were prepared and dilutions made as described by the Clinical Laboratory Standards Institute (2005 CLSI). Following two subcultures from frozen stock the MICs of the antimicrobial agents for the isolates were determined by the CLSI 2005 approved broth macrodilution method. Briefly, test tubes containing doubling antibiotic dilutions (2 ml per tube) of cation adjusted Mueller-Hinton broth (eg. for Enterobacteriaceae) with or without lysed horse blood (2-5% V/V) [eg. for S. pneumoniae] were inoculated to achieve a final concentration of approximately 5×10^5 CFU/ml and incubated in ambient air for 24 hours prior to reading. Colony counts were performed periodically to confirm inocula. Quality control was performed every two weeks using a variety of ATCC QC organisms including; S. aureus 29213, E. faecalis 29212, E. coli 25922 and P. aeruginosa 27853.
# (§3) One MSSA was used as a control. All MICs were assessed using CLSI guidelines.
# (§4) One MS SA and ATCC reference strains were used as controls. All MICs were assessed using CLSI guidelines.
# CA-MRSA [2] = assay: MIC (CLSI broth dilution), agent alone; format: cell-based, Staphylococcus aureus; conditions: agent alone
# Experimental: as §1, §2, §3, §4
# MSSA = assay: MIC (CLSI broth dilution), agent alone; format: cell-based, Staphylococcus aureus; conditions: MSSA 79333, agent alone
# Experimental: as §1, §2, §3, §4
# VISA = assay: MIC (CLSI broth dilution), agent alone; format: cell-based, Staphylococcus aureus; design: unit: µg/mL
# Experimental: as §1
# (§5) Antimicrobial Susceptibility Testing: A custom designed panel of antimicrobials was created. The panel included: PEP35, penicillin, piperacillin/tazobactam, cefazolin, ceftriaxone, meropenem, clarithromycin, clindamycin, gentamicin, amikacin, vancomycin, ciprofloxacin, levofloxacin, moxifloxacin, linezolid, trimethoprim/sulfamethoxazole and doxycycline. These agents were obtained as laboratory grade powders from their respective manufacturers. Stock solutions were prepared and dilutions made as described by the Clinical Laboratory Standards Institute (2005 CLSI). Following two subcultures from frozen stock the MICs of the antimicrobial agents for the isolates were determined by the CLSI 2005 approved broth macrodilution method. Briefly, test tubes containing doubling antibiotic dilutions (2 ml per tube) of cation adjusted Mueller-Hinton broth (eg. for Enterobacteriaceae) with or without lysed horse blood (2-5% V/V) [eg. for S. pneumoniae] were inoculated to achieve a final concentration of approximately 5×10^5 CFU/ml and incubated in ambient air for 24 hours prior to reading. Colony counts were performed periodically to confirm inocula. Quality control was performed every two weeks using a variety of ATCC QC organisms including; S. aureus 29213, E. faecalis 29212, E. coli 25922 and P. aeruginosa 27853. For all antimicrobials as well as PEP35, CLSI criteria were used.
# as §3
# VRSA [3] = assay: MIC (CLSI broth dilution), agent alone; format: cell-based, Staphylococcus aureus; design: unit not given beside the values
# Experimental: as §1, §5, §3
# [4] = tested on: MRSA, VISA, VRSA and E. coli; assay: Checkerboard assay, panel statement; format: cell-based; conditions: with β-lactams versus MRSA, VISA, VRSA and E. coli
# Experimental: (§6) Checkerboard assays were carried out as described by Bonapace et al.
# (§7) Diagnostic Microbiology and Infectious Diseases 2002; 44:363-366. In brief, checkerboard assays were performed in 96 well microtitre trays using an 8-by-8 well configuration. […] 96-well custom designed microtitre plates contained 100 ul/well of cation adjusted Mueller-Hinton broth (eg. for Enterobacteriaceae) with or without lysed horse blood (2-5% V/V) [eg. for S. pneumoniae] and were inoculated to achieve a final concentration of approximately 5×10^5 CFU/ml and incubated in ambient air for 24 hours prior to reading. Colony counts were performed periodically to confirm inocula. Quality control was performed every two weeks using a variety of ATCC QC organisms including; S. pneumoniae 49619, S. aureus 29213, E. faecalis 29212, E. coli 25922 and P. aeruginosa 27853. […] All peptides were assessed for synergy with β-lactams and vancomycin. For all antimicrobials as well as the peptides, CLSI criteria were used.
# (§8) The fractional inhibitory concentration index (FIC index) was used to interpret synergy, antagonism or additivity/indifference. FIC index=FIC of drug A+FIC of drug B where:
# (§9) The FIC of drug A and drug B was calculated as follows, FIC drug A=MIC of drug A in combination/MIC of drug A alone and FIC of drug B=MIC of drug B in combination/MIC of drug B alone. Synergy was defined as FIC index ≦0.5, additivity/indifference defined as a FIC between 0.5 and 4 and antagonism defined as an FIC index >4.
# The fractional inhibitory concentration index (FIC index) was used to interpret synergy, antagonism or additivity/indifference. FIC index=FIC of drug A+FIC of drug B where the FIC of drug A and drug B was calculated as follows, FIC drug A=MIC of drug A in combination/MIC of drug A alone and FIC of drug B=MIC of drug B in combination/MIC of drug B alone. Synergy was defined as FIC index ≦0.5, additivity/indifference defined as an FIC of between 0.5 and 4 and antagonism defined as an FIC index >4.
# VRSA [5] = assay: Antibiotic MIC with fixed concentration of peptide; format: cell-based, Staphylococcus aureus; conditions: VISA and VRSA; Table 13
# Experimental: as §3
# HA-MRSA [6] = assay: Antibiotic MIC with fixed concentration of peptide; format: cell-based, Staphylococcus aureus; conditions: HA-MRSA strains; Table 13
# Experimental: as §3, §4
# CA-MRSA [7] = assay: Antibiotic MIC with fixed concentration of peptide; format: cell-based, Staphylococcus aureus; conditions: versus CA-MRSA; Table 13
# Experimental: as §3, §4
# [8] = tested on: MRSA, VISA, VRSA and E. coli; assay: MIC, agent alone, panel statement; format: cell-based; conditions: versus MRSA, VISA, VRSA and E. coli
# Experimental: as §1, §5
# E. coli [9] = assay: MIC (CLSI broth dilution), agent alone; format: cell-based, Escherichia coli; conditions: agent alone
# Experimental: as §1, §5, §4
# P. aeruginosa = assay: Checkerboard assay (FIC index); format: cell-based, Pseudomonas aeruginosa; conditions: antibiotic combined with PEP35
# Experimental: (§10) The checkerboard assays were carried out as described by Eliopoulos and Moellering (Chapter 9) in Antibiotic in Laboratory Medicine, Lorian Ed. 1996 as well as Bonapace et al. Diagnostic Microbiology and Infectious Diseases 2002; 44:363-366 and Bonapace et al. Diagnostic Microbiology and Infectious Diseases 2000; 38:43-50. In brief, checkerboard assays were performed in 96 well microtitre trays using an 8-by-8 well configuration. […] 96-well custom designed microtitre plates contained 100 ul/well of cation adjusted Mueller-Hinton broth (eg. for Enterobacteriaceae) with or without lysed horse blood (2-5% V/V) [eg. for S. pneumoniae] and were inoculated to achieve a final concentration of approximately 5×10^5 CFU/ml and incubated in ambient air for 24 hours prior to reading. Colony counts were performed periodically to confirm inocula. Quality control was performed every two weeks using a variety of ATCC QC organisms including; S. pneumoniae 49619, S. aureus 29213, E. faecalis 29212, E. coli 25922 and P. aeruginosa 27853. For all antimicrobials as well as PEP35, CLSI criteria was used.
# as §8
# (§11) The FIC of drug A and drug B is calculated as follows, FIC drug A=MIC of drug A in combination/MIC of drug A alone and FIC of drug B=MIC of drug B in combination/MIC of drug B alone. Synergy is defined as FIC index ≦0.5, additivity/indifference FIC >0.5-4 and antagonism FIC index >4.
# (§12) Antimicrobials used included PEP35, cefazolin, ceftriaxone, vancomycin, linezolid, tigecycline and daptomycin versus Gram-positive cocci and PEP35, gentamicin, levofloxacin, piperacillin/tazobactam, meropenem and colistin (Polymyxin E) versus Gram-negative bacilli. These agents were obtained as laboratory grade powders from their respective manufacturers. Stock solutions were prepared and dilutions made as described by the Clinical Laboratory Standards Institute (2005 CLSI).
# (§13) Organisms included Gram-positive cocci (2 strains of each): Methicillin-susceptible Staphylococcus aureus (MSSA), community-associated (CA) and healthcare-associated (HA) methicillin-resistant Staphylococcus aureus (MRSA), vancomycin-intermediate Staphylococcus aureus (VISA), vancomycin-resistant Staphylococcus aureus (VRSA), methicillin-resistant Staphylococcus epidermidis (MRSE), Streptococcus pyogenes, Streptococcus agalactiae, Streptococcus pneumoniae, Enterococcus faecalis, Enterococcus faecium and vancomycin-resistant enterococcus (VRE). Gram-negative bacilli tested (2 strains of each) included: E. coli, Pseudomonas aeruginosa, Klebsiella pneumoniae, K. oxytoca, Enterobacter cloacae, P. mirabilis and Stenotrophomonas maltophilia. MIC testing, following two subcultures from frozen stock were determined by the CLSI 2005 approved broth microdilution method.
# P. mirabilis [10] = assay: MIC, agent alone (broth microdilution); format: cell-based, Proteus mirabilis; conditions: footnote to Table 12; P. mirabilis 80267 and 81569
# Source text: as §13
# E. cloacae = assay: Checkerboard assay (FIC index); format: cell-based, Enterobacter cloacae; conditions: antibiotic combined with PEP35
# Experimental: as §10, §8, §11, §12, §13
# E. coli [11] = assay: Checkerboard assay (FIC index); format: cell-based, Escherichia coli; conditions: antibiotic combined with PEP35
# Experimental: as §6, §7, §8, §9, §10, §11, §12
# Organisms included Gram-positive cocci (2 strains of each): Methicillin-susceptible Staphylococcus aureus (MSSA), community-associated (CA) and healthcare-associated (HA) methicillin-resistant Staphylococcus aureus (MRSA), vancomycin-intermediate Staphylococcus aureus (VISA), vancomycin-resistant Staphylococcus aureus (VRSA), methicillin-resistant Staphylococcus epidermidis (MRSE), Streptococcus pyogenes, Streptococcus agalactiae, Streptococcus pneumoniae, Enterococcus faecalis, Enterococcus faecium and vancomycin-resistant enterococcus (VRE). […]
# K. pneumoniae = assay: Checkerboard assay (FIC index); format: cell-based, Klebsiella pneumoniae; conditions: antibiotic combined with PEP35
# Experimental: as §10, §8, §11, §12, §13
# P. mirabilis [12] = assay: Checkerboard assay (FIC index); format: cell-based, Proteus mirabilis; conditions: antibiotic combined with PEP35
# Experimental: as §10, §8, §11, §12, §13
# K. oxytoca = assay: Checkerboard assay (FIC index); format: cell-based, Klebsiella oxytoca; conditions: antibiotic combined with PEP35
# Experimental: as §10, §8, §11, §12, §13
# S. maltophilia = assay: Checkerboard assay (FIC index); format: cell-based, Stenotrophomonas maltophilia; conditions: antibiotic combined with PEP35; S. maltophilia 73062
# Experimental: as §10, §8, §11, §12, §13
substance,measurement,setting,value
LKQKIKHVVKLKVVVKLRSQLAKKKQS (hybPEP35-1 conservative substitution human peptide variant) [human peptide variant of PEP35 with conservative substitutions],MIC,"HA-MRSA [1]; HA-MRSA 70798 (USA100/800), in µg/mL",> 2048 and 1024
same,MIC,"HA-MRSA [1]; HA-MRSA 77090 (USA100/800), in µg/mL",1024 and 512
same,MIC,HA-MRSA [1]; HA-MRSA 77098 (USA100/800),≧2048/2048^
same,MIC,CA-MRSA [2]; CA-MRSA 69615 (USA400),1024/1024
same,MIC,CA-MRSA [2]; CA-MRSA 70857 (USA400),1024/1024
same,MIC,MSSA,128/128
same,MIC,MSSA; in µg/mL,256
same,MIC,VISA; VISA 92,>2048/>2048
same,MIC,VISA; VISA 95,>2048/2048
same,MIC,"VISA; VISA 96, in µg/mL",1024
same,MIC,"VISA; VISA 96, listed as hybPEP35, in µg/mL",1024 and 2048
same,MIC,VRSA [3]; VRSA 105,128/128
same,MIC,"VRSA [3]; VRSA 105, in µg/mL",256 and 128
same,MIC,"VRSA [3]; VRSA 106, in µg/mL",256
same,MIC,"VRSA [3]; VRSA 106, listed as hybPEP35, in µg/mL",128 and 256
same,synergistic activity (in words),[4],synergistic activity
same,synergy with β-lactams (in words),VRSA [5],mild to strong
same,synergy with β-lactams (in words),HA-MRSA [6],weak synergy; also recorded: stronger synergy
same,synergy with β-lactams (in words),CA-MRSA [7],Strong synergy
same,activity (in words),[8],no activity; also recorded: not active
same,MIC,"E. coli [9]; E. coli 69716, listed as hybPEP35-1, in µg/mL",64
same,MIC,"E. coli [9]; E. coli 69716, listed as hybPEP35, in µg/mL",128 and 64
same,MIC,E. coli [9]; E. coli 70752,64/64
same,MIC,"E. coli [9]; E. coli 70752, in µg/mL",32
colistin (Polymyxin E),Avg ΣFIC (range),P. aeruginosa; P. aeruginosa 70849,0.70 (0.28-1.12)
same,Avg ΣFIC (range),P. aeruginosa; P. aeruginosa 71841,0.89 (0.53-1.25)
same,MIC,P. mirabilis [10],COL MIC > 4096
same,Avg ΣFIC (range),E. cloacae; E. cloacae 80194,0.70 (0.31-1.12)
same,Avg ΣFIC (range),E. cloacae; E. cloacae 83128,0.77 (0.5-1.06)
same,Avg ΣFIC (range),E. coli [11]; E. coli 69716,0.71 (0.31-1.06)
same,Avg ΣFIC (range),E. coli [11]; E. coli 70752,0.81 (0.31-1.25)
same,Avg ΣFIC (range),K. pneumoniae; K. pneumoniae 70508,0.67 (0.31-1.06)
same,Avg ΣFIC (range),K. pneumoniae; K. pneumoniae 77081,0.61 (0.18-1.06)
same,Avg ΣFIC (range),P. mirabilis [12]; P. mirabilis 80267,>1**
same,Avg ΣFIC (range),P. mirabilis [12]; P. mirabilis 81569,>1**
same,Avg ΣFIC (range),K. oxytoca; K. oxytoca 75316,0.41 (0.24-0.56) and 0.62 (0.18-1.06) and 0.65 (0.18-1.12)
same,Avg ΣFIC (range),K. oxytoca; K. oxytoca 76874,0.83 (0.31-2.03)
same,Avg ΣFIC (range),S. maltophilia,0.88 (0.53-1.25)
